We go through three molecules from patent publication US20240190971A1, “USE OF an anti-P-selectin antibody” (NOVARTIS AG, priority 2018, published 2024).

One series concerns Gata1^low mice. The following applies: mouse, in vivo. The protocol:
Given the well described effects of inhibition of the TGF-β receptor 1 kinase on myelofibrosis in mouse models, the effects of the P-selectin inhibitor with those obtained with SB431542 are compared. In fact, contrary to inhibition of TGF-β signaling, inhibition of P-selectin has limited side effects and is therefore preferable to TGF-β inhibitors. […] Gata1^low mice are treated at 5-6 months of age (i.e. in the pre-MF stage) and analyzed at 10-12 months, an age when they are expected to have MF.
Gata1^low mice (8 mice per group) are treated with SB431542 according to the following scheme: • Group 1: Vehicle treated (2% v/v DMSO in H2O) (negative control) • Group 2: Mice receive SB431542 (60 μg/kg/day, cat no S4317-5GM, Sigma-Aldrich, St Louis, MO), as described (Spangrude G J et al, Stem Cells 2016; 34:67-82; Zingariello M et al, Blood 2013; […]
5-6 months old mice are treated daily for 5 days (Monday to Friday), then rested for 2 days and then treated again for 5 days. These treatments continue until the mice will reach 10-12 months of age. At that point they are sacrificed and analyzed for signs of progression to MF as described by Spangrude G J et al, Stem Cells 2016; 34:67-82; Zingariello M et al, Blood 2013; 121:3345-63. […]

The test system of series [1] is broad panel of 26 kinases. The following applies: tested at 200 nM; cited from earlier work.
The target of a further series is JAK3 (Homo sapiens, UniProt P52333). The conditions noted are these: at clinically relevant concentrations; cited from earlier work.
Chain of JAK3 (P52333 whole entry): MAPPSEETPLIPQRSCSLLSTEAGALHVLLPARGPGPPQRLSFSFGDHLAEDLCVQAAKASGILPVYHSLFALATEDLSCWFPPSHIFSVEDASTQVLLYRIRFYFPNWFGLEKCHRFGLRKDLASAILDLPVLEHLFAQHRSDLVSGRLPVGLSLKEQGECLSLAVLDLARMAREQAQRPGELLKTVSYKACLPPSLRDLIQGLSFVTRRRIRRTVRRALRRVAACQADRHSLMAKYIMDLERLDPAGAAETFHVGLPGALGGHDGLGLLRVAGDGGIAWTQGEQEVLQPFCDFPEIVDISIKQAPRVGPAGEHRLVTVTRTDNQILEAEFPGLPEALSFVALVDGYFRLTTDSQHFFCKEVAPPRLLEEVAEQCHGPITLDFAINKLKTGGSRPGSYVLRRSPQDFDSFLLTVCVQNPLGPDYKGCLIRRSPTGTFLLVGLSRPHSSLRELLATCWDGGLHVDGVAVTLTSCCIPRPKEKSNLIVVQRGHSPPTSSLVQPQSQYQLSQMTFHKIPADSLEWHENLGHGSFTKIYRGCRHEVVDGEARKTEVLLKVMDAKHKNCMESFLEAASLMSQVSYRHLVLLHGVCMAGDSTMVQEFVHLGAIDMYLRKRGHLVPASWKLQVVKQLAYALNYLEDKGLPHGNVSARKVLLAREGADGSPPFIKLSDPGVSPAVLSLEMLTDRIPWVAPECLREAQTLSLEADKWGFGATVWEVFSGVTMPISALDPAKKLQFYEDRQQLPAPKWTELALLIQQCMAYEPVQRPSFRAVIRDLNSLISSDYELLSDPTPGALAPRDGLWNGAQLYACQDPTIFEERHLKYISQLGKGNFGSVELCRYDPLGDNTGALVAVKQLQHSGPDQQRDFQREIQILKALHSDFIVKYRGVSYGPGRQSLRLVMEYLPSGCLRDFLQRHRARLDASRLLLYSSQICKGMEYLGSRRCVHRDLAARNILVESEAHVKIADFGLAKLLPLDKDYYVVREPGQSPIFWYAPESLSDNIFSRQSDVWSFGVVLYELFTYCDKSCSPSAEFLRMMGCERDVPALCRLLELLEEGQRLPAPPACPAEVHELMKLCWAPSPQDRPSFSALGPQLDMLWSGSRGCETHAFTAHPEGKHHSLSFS
In a further series the target is T1, P-selectin (Homo sapiens, UniProt P16109).
T1 sequence (P16109 42-830): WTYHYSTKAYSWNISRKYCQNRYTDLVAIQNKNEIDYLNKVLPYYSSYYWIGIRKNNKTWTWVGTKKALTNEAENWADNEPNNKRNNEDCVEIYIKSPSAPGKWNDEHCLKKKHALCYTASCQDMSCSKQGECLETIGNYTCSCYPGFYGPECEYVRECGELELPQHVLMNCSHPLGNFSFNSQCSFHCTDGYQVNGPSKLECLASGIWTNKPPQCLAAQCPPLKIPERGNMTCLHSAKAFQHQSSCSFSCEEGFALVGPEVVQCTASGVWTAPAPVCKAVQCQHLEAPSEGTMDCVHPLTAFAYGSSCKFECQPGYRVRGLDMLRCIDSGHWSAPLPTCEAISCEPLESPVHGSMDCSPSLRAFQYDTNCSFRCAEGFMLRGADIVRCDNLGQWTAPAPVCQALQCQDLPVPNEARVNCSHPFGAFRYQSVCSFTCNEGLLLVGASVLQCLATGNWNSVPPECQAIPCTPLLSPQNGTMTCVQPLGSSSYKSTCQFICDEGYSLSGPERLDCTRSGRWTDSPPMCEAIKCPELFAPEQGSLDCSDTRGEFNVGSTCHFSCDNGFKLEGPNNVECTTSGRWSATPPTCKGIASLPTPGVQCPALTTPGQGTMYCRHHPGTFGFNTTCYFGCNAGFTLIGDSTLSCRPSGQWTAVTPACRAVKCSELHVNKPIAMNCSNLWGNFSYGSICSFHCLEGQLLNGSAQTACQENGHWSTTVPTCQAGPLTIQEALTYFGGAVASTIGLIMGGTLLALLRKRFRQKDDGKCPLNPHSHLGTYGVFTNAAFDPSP
The conditions noted are these: cited from earlier work.

Some results are limits rather than exact numbers.

Consider `NC(=O)c1ccc(-c2nc(-c3ccc4c(c3)OCO4)c(-c3ccccn3)[nH]2)cc1` [SB431542], for which the toxicity profile result in the series with Gata1^low mice is “poor toxicity profile (increased osteosclerosis)”. One may read the inhibition as the share of the control response that was lost under treatment. For the molecule `N#CC[C@H](C1CCCC1)n1cc(-c2ncnc3[nH]ccc23)cn1` [ruxolitinib, (R)-3-(4-(7H-pyrrolo[2,3-d]pyrimidin-4-yl)-1H-pyrazol-1-yl)-3-cyclopentylpropanenitrile], the inhibition in series [1] was less than 30%. Besides, the “inhibition of JAK3” value at JAK3 is “does not inhibit”.

B1: crizanlizumab: humanized monoclonal antibody targeted towards P-selectin, blocks its interaction with PSGL-1 (antibody)
heavy: QVQLVQSGAEVKKPGASVKVSCKVSGYTFTSYDINWVRQAPGKGLEWMGWIYPGDGSIKYNEKFKGRVTMTVDKSTDTAYMELSSLRSEDTAVYYCARRGEYGNYEGAMDYWGQGTLVTVSSASTKGPSVFPLAPCSRSTSESTAALGCLVKDYFPEPVTVSWNSGALTSGVHTFPAVLQSSGLYSLSSVVTVTSSNFGTQTYTCNVDHKPSNTKVDKTVERKCCVECPPCPAPPVAGPSVFLFPPKPKDTLMISRTPEVTCVVVDVSHEDPEVQFNWYVDGMEVHNAKTKPREEQFNSTFRVVSVLTVVHQDWLNGKEYKCAVSNKGLPAPIEKTISKTKGQPREPQVYTLPPSREEMTKNQVSLTCLVKGFYPSDIAVEWESNGQPENNYKTTPPMLDSDGSFFLYSKLTVDKSRWQQGNVFSCSVMHEALHNHYTQKSLSLSPGK
light: DIQMTQSPSSLSASVGDRVTITCKASQSVDYDGHSYMNWYQQKPGKAPKLLIYAASNLESGVPSRFSGSGSGTDFTLTISSLQPEDFATYYCQQSDENPLTFGGGTKVEIKRTVAAPSVFIFPPSDEQLKSGTASVVCLLNNFYPREAKVQWKVDNALQSGNSQESVTEQDSKDSTYSLSSTLTLSKADYEKHKVYACEVTHQGLSSPVTKSFNRGEC
For B1, in the series with P-selectin, the “blocking of P-selectin interaction with PSGL-1” value is recorded as “blocks its interaction with P-selectin glycoprotein ligand 1 (PSGL-1)” and the “dissociation of already formed P-selectin/PSGL-1 complexes” value was “dissociates P-selectin/PSLG-1 complexes that have already formed”.
